From publication PMC11043318, “Quantification of biochemical PSA dynamics after radioligand therapy with [^177Lu]Lu-PSMA-I&T using a population pharmacokinetic/pharmacodynamic model” (EJNMMI Physics, 2024)
“And” between values parts separate entries of the source, which are not always exact repeats. Identical values can stand only once.

What was measured:
[1] = cited from earlier work
Description: Comparison of rate constants for drug transfer between different compartments is hampered by absolute radioactivity amounts being relatively small in tumors compared to organs (due to volume differences between these compartments). […] Though differences are small, these might be caused by different treatment intervals (two-week instead of six-week interval) for most patients.

[2] = test system: serum prostate-specific antigen (PSA); assay: Population PKPD model of PSA dynamics after therapy; format: in vivo, human; settings: estimate (RSE%)
Description: Data from patients treated in our hospital with [^177Lu]Lu-PSMA-I&T between September 2019 and January 2023 were collected for population PK model development. This retrospective data collection was approved by the Institutional Review Board of the Netherlands Cancer Institute (IRBd21288). Baseline patient characteristics were collected, such as age, body weight, height and serum creatinine clearance. In addition, individual PSA concentrations were collected and used as input for the PD model. As pre-treatment PSA value, only the last observation prior to [^177Lu]Lu-PSMA-I&T treatment (< 6 weeks) was included in the analysis, to avoid taking into account PSA changes due to other previous treatments. For the same reason, PSA observations after the last [^177Lu]Lu-PSMA-I&T administration were collected up to start of a new treatment.
A sequential modelling approach was used for PKPD model development, where an additional compartment was considered to describe PSA concentrations over time. Baseline PSA concentrations were estimated as a typical population value with an estimated IIV on this population baseline value. […] For Edrug, a linear function, an Emax function and a sigmoid Emax model were evaluated (see Eqs. 9–11, respectively).9 Edrug=kD∗Ctumor 10 Edrug=EMAX∗Ctumor/EC50+Ctumor 11 Edrug=EMAX∗Ctumorγ/EC50γ+Ctumorγ where kD is a drug-induced effect, Ctumor is the estimated concentration in the tumor compartment (taking into account radioactive decay), EMAX is the maximal drug induced effect of [^177Lu]Lu-PSMA-I&T on PSA, EC50 is the [^177Lu]Lu-PSMA-I&T concentration at which half of the maximum drug-induced effect on PSA occurs and γ is a hill coefficient (that was both estimated and fixed during model development).
Therefore, a delay of the PD effect after administration of [^177Lu]Lu-PSMA-I&T (Edelayed) was evaluated using an effect compartment with a linear drug effect (Eq. 8) on the PSA compartment. This delayed effect was assessed both solely as well as additional to the direct effect (Edrug). […]

[3] = cited from earlier work; remark: listed apart in the source
Description: Though differences are small, these might be caused by different treatment intervals (two-week instead of six-week interval) for most patients.

[4] = Population pharmacokinetic model from post-administration SPECT/CT data; format: in vivo, human
[5] = test system: serum prostate-specific antigen (PSA); assay: Tumor exposure (AUC) threshold for PSA response, linear regression; format: in vivo, human; settings: Bayesian estimated tumor AUC of first two cycles
Description: As an exploratory analysis, the final population PKPD model was used to assess a potential tumor exposure threshold required to achieve treatment response. The individually (Bayesian) estimated area under the curve (AUC) based on the first two treatment cycles was related to the change in PSA (%) for each patient. Since PSA is a continuous response measure and there is no defined moment to determine response, two endpoints for response were considered: nadir PSA and the last measured PSA value after the first two treatment cycles. A linear regression was performed to assess the relationship and was subsequently used to define tumor AUC thresholds required to achieve treatment response (≥ 50% decrease in PSA). Formal statistical testing was not possible, since individual (Bayesian) estimates of tumor exposure cannot be considered independent variables.

[6] = fraction of tumor uptake rate in cycle 1, estimate (RSE%)
[7] = population PK model, covariate exponent, estimate (RSE%)
[8] = population PK model, estimate (RSE%)

SMILES: O=C(O)CC[C@H](NC(=O)N[C@@H](CCCCNC(=O)[C@H](Cc1ccc2ccccc2c1)NC(=O)[C@H]1CC[C@H](CNC(=O)CN2CCN(CC(=O)O)CCN(CC(=O)O)CCN(CC(=O)O)CC2)CC1)C(=O)O)C(=O)O [[^177Lu]Lu-PSMA-617, metal not drawn]
- Initial volume of distribution [1]: 22 L
- Reported clearance [1]: 2.04 L/h
- Excretion rate ([1]; population PK model): 0.288 h⁻¹

SMILES: O=C([O-])CC[C@H](NC(=O)N[C@@H](CCCCNC(=O)CCCCCCC(=O)NCCCC[C@@H](NC(=O)[C@@H](Cc1ccccc1)NC(=O)[C@@H](Cc1ccc(O)c(I)c1)NC(=O)CC[C@H](C(=O)[O-])N1CCN(CC(=O)[O-])CCN(CC(=O)[O-])CCN(CC(=O)[O-])CC1)C(=O)[O-])C(=O)[O-])C(=O)[O-].[177Lu+3].[H+].[H+].[H+].[H+].[H+] [[^177Lu]Lu-PSMA-I&T]
- Rate constant effect compartment (ke0) ([2]; first-order delay to effect compartment): 0.00128 (13.1%) h^−1
- Delayed drug-induced effect (kD, delay) ([2]; linear effect from effect compartment on PSA): 0.0000328 (17.4%) L·day^−1·MBq^−1
- Direct drug-induced effect (kD, direct) ([2]; linear effect of tumor concentration on PSA elimination): 0.00335 (40.1%) L·day^−1·GBq^−1
- Average tumor absorbed dose, fourth cycle relative to first cycle [3]: 68%
- Average tumor absorbed dose, second cycle relative to first cycle [3]: 94%
- Average tumor absorbed dose, third cycle relative to first cycle [3]: 77%
- Average tumor absorbed dose, first cycle ([3]; n = 5–15 patients per cycle): 3.5 Gy/GBq
- Average tumor absorbed dose, fourth cycle ([3]; n = 5–15 patients per cycle): 2.4 Gy/GBq
- Average tumor absorbed dose, second cycle ([3]; n = 5–15 patients per cycle): 3.3 Gy/GBq
- Average tumor absorbed dose, third cycle ([3]; n = 5–15 patients per cycle): 2.7 Gy/GBq
- Tumor uptake rate in cycle 2 compared to cycle 1 ([4]; all 76 patients): 73% and 73.1%
- Tumor uptake rate in cycle 3 compared to cycle 1 ([4]; all 76 patients): 50% and 49.8%
- Tumor uptake rate in cycle 4–7 compared to cycle 1 ([4]; all 76 patients): 44% and 43.6%
- Salivary gland uptake in cycle three compared to cycle one ([4]; cycle effect tested on k12): 98.1%
- Salivary gland uptake in cycle two compared to cycle one ([4]; cycle effect tested on k12): 84.6%
- Estimated half-life, tumors ([4]; decay-corrected data): ~46 h
- Cycle 2 on k14 (fractional change) [4, 6]: 0.731 (8.1%)
- Cycle 3 on k14 (fractional change) [4, 6]: 0.498 (11.3%)
- Cycle 4–7 on k14 (fractional change) [4, 6]: 0.436 (11.6%)
- Increase of tumor uptake rate with a two-times higher tumor volume ([4]; from power covariate 1.08 on k14): 2.11 fold
- Tumor uptake rate in cycle 2 compared to cycle 1, excluding '4 × 6' patients ([4]; only '2 × 2 – repeated after twelve weeks' scheme): 82.9%
- k10 (renal excretion rate constant from central compartment) ([4]; population PK model, 76 mCRPC patients, ~7.4 GBq per cycle, SPECT/CT, estimate (RSE%)): 0.253 (5.2%) h^−1
- k12 (uptake rate central to salivary glands) ([4]; population PK model, 76 mCRPC patients, estimate (RSE%)): 0.0105 (9.2%) h^−1
- Renal clearance ([4]; population PK model, mCRPC patients): 2.61 L/h
- Tumor volume on k12 (power covariate function) [4, 7]: 0.0910 (30.0%)
- Tumor volume on k14 (power covariate function) [4, 7]: 1.08 (7.5%)
- k13 (uptake rate central to kidneys) [4, 8]: 0.0321 (6.9%) h^−1
- k14 (uptake rate central to tumors) [4, 8]: 0.00967 (9.9%) h^−1
- k15 (central to remaining tissue) [4, 8]: 0.275 (6.8%) h^−1
- k21 (salivary glands to central) [4, 8]: 0.0629 (6.3%) h^−1
- k31 (kidneys to central) [4, 8]: 0.0625 (5.4%) h^−1
- k41 (tumors to central) [4, 8]: 0.0150 (3.4%) h^−1
- k51 (remaining tissue to central) [4, 8]: 0.0247 (6.5%) h^−1
- Estimated half-life, organs-at-risk ([4]; salivary glands and kidneys, decay-corrected data): approximately 11 h
- BMAX compartment 2 (maximum binding capacity, salivary glands) ([4]; saturable uptake into salivary glands, estimate (RSE%)): 134 (15.5%) MBq
- Threshold tumor AUC for ≥ 50% decrease in PSA, last measured PSA after first two cycles [5]: 1188 MBq·h/mL
- Threshold tumor AUC for ≥ 50% decrease in PSA, nadir PSA as outcome [5]: 709.5 MBq·h/mL
